Experimental data taken from patent US8263060B2, “Fast degrading polymers” (Rutgers, The State University of New Jersey, priority 2005, dated 2012).
Converted amounts (≈) assume the structure as drawn.

Experiment: Solubility in PBS degradation media
Format: physicochemical
Settings: aqueous buffer

## COc1cc(C(=O)O)cc(OC)c1O [syringic acid]
  solubility: 56 mg/mL (≈ 283 mM)
